Assays:
U266 cells = assay: SPT expression, ceramide staining and SPT inhibition in U266 cells; assay type: cell-based, human
Experimental: Except if otherwise indicated, for the viability assays primary cells were incubated 18 hours, with vehicle (with <0.15% DMSO) or cannabinoid. Meanwhile, the time course assays cells were performed at 0, 2, 6, 18 and 24 h. For the analysis of SPT activity, cells were co-incubated for the first 6 hours with the SPT inhibitor, myriocin, and the cannabinoid, WIN-55 or JWH-133.
Samples (15-25 ug/lane) were subjected to SDS/PAGE in pre-cast polyacrylamide gels AnykD (Bio-Rad Laboratories, Hercules, CA, USA) under reducing and denaturing conditions. Electrophoretic run was performed at a constant current of 15 mA per gel in a Mini-Protean® Tetra Cell (Bio-Rad Laboratories). Once proteins were separated by electrophoresis, were transferred onto PVDF membranes using Trans-Blot® Turbo™ System (Bio-Rad Laboratories). Electrotransference was conducted at constant amperage of 1.2 mA and at up to 25 V of voltage. The blotted membranes were then blocked with 2% bovine serum albumin [(BSA), Santa Cruz Biotechnology] in Tween-Tris buffer saline (TTBS) for 30 min with gentle agitation, and incubated overnight at 4° C. with corresponding primary antibody in TTBS. After twice washing with TTBS, membranes were incubated for 1-2 h at room temperature with suitable conjugated-HRP secondary antibody, and subjected to chemiluminescence detection using Western Blotting Luminol Reagent (Santa Cruz Biotechnology). Loading controls were carried out with an anti-beta-actin and anti-beta-tubulin antibodies (Sigma-Aldrich). Blots were captured using a digital imaging system ImageQuant LAS 4000 (Amersham GE Healthcare) and transferred to a digital image processing software to analyze (Adobe Photoshop CS2, version 9.0., Adobe Systems Inc., San Jose, Calif.).
After cannabinoids and/or antagonists or SPT inhibitor treatment, primary cells and cell lines were washed with PBS, collected and placed on slides (Menzel-Glaser, Thermo Fisher Scientific). Cells were fixed in cold 4% paraformaldehyde for 10 min, treated with sodium borohydride and, permeabilized in 0.02% Triton X-100 in PBS with 10% normal donkey serum for blocking. Then, cells were incubated with the anti-CB1 or anti-CB2 receptor antibodies, anti-active-caspase3, anti-ceramide in blocking buffer overnight at 4° C. in a humid chamber (Simport, Beloeil, QC, Canada). After washing with PBS, samples were further incubated for 90 min with Alexa 647- or Alexa 488—conjugated donkey secondary antibody. After twice washing, first with PBS and then with 50 mM Tris-HCl (pH 7.4), and were dipped in a solution of Sudan Black B (Sigma-Aldrich) in 70% methanol for 5 min. After immunocytochemistry, slides were mounted using Fluoromount Aqueous Mounting Medium (Sigma-Aldrich). Preparations were examined with an Olympus BX-61 microscope (Olympus, Hamburg, Germany) equipped with appropriate filters: FITC/Cy2 (green fluorophores) 460-490 nm bandpass excitation filter and 510-550 nm bandpass emission filter; rhodamine/Cy3 (red fluorophores) 541-551 nm excitation and 572-607 nm emission; and Cy5 (deep red fluorophore) 615-635 nm excitation and 655 nm longpass emission. Digital images were acquired with CellSens Dimension Software (Olympus) and contrasted with Photoshop CS2 Software (Adobe Systems Inc). […]
De novo synthesis of ceramides contribute to the apoptotic process triggered by cannabinoids. […] To this end, we analyzed the expression of serine palmitoyltransferase (SPT), the enzyme that catalyses the rate-limiting step of ceramide synthesis de novo. […]

HL60 cells = assay: Western blot of ER-stress regulator proteins in HL60 cells; assay type: cell-based, human; conditions: HL60, WIN-55 50 uM
Experimental: FIG. 19. […] Expression analysis by Western blot of regulator proteins of ER-stress in HL60 cells treated with WIN-55 50 uM.
Extracted proteins (15-25 ug/well) were separated by sodium dodecyl sulfate-polyacrylamide gel electrophoresis (SDS/PAGE) in pre-cast polyacrylamide gels AnykD (Bio-Rad Laboratories, Hercules, Calif., USA) under reducing and denaturing conditions. Electrophoretic run was performed at a constant current of 15 mA per gel in a Mini-Protean® Tetra Cell (Bio-Rad Laboratories) and were electrophoretically transferred onto PVDF membranes using Trans-Blot® Turbo™ System (Bio-Rad Laboratories). Blocking was performed with 2% bovine serum albumin [(BSA), Santa Cruz Biotechnology] in Tween-Tris buffer saline (TTBS). Membranes were incubated overnight at 4° C. with corresponding primary antibody in TTBS.

## CS(=O)(=O)O.Cc1c(C(=O)c2cccc3ccccc23)c2cccc3c2n1[C@H](CN1CCOCC1)CO3 [WIN-55, (R)-(+)-[2,3-dihydro-5-methyl-3-(4-morpholinylmethyl)-pyrrolo-[1,2,3]-1,4-benzoxazin-6-yl]-1-naphthalenylmethanone mesylate]
U266 cells; U266
  SPT, 2 h after exposure: moderate increase
  time at which SPT reached the maximal level: 18 h
U266 cells; U266, 50 uM, 18 hours
  ceramide by immunohistochemistry, compared to untreated cells: remarkable increase
U266 cells; U266, WIN-55 50 uM
  SPT expression level in myelomatous cells: enhanced
HL60 cells
  ER-stress in AML cells: increase the ER-stress

From patent US20180353461A1, “USE OF CANNABINOIDS AS CERAMIDE-GENERATING ANTICANCER AGENTS IN TUMORS OF THE HEMATOPOIETIC AND LYMPHOID TISSUES” (priority 2014, published 2018)
